Measurements as given in PubChem BioAssay AID179 (DTP/NCI, 2004).
Values joined by “and” are separate entries in the source; they are usually repeats but may differ in a detail not shown here. Identical values can stand only once. Active and inactive are the calls of the source.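 The calls were made as follows: active = compounds giving half or more protection of infected cells from virus-caused growth loss, again on retest; inactive = the rest.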

Test system: CEM cells HIV-1 protection, formazan growth assay
Experiment: NCI AIDS Antiviral Assay
Details: for IC50: measured here: growth of uninfected CEM cells
Summary of the method: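 Protection of CEM cells against HIV-1 was scored from cell growth (soluble formazan) across five concentrations, with parallel uninfected cells. Lack of protection may reflect toxicity.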

Row | SMILES | EC50 | IC50 | outcome
1 | O=C1CCCC2C3CC(CN12)C1CC(O)CCN1C3 (stereo unspecified) | > 200 µM | > 200 µM | 
2 | COC(OC)c1cc2c(cc1C(=O)[C@@]13CCC[C@@H]1NC(=O)O3)OCO2 |  |  | inactive
3 | NCCN.O=C([O-])[O-].O=C([O-])[O-].[Co+3].[K+] | > 646 µM | 295 µM and 339 µM | 
4 | CCCCC(CCCCCC(CCCC)C1NC(C)Cc2cc(OC)c(OC)cc21)C1NC(C)Cc2cc(OC)c(OC)cc21 (stereo unspecified) | > 200 µM | 0.447 µM | 
5 | CC(C)(CO)N1C(=O)c2ccccc2C1(O)c1ccc(Cl)cc1 (stereo unspecified) | > 200 µM | 91.2 µM | 
6 | CCc1ccc(/C(C#N)=C/c2ccc(N(C)CCC#N)cc2)cc1 | > 200 µM | 3.55 µM | 
7 | N#C/C(=C\NC(=S)NC1CCCCC1)c1nc2ccccc2s1 | > 200 µM | 41.7 µM | 
8 | C=CC(c1ccccc1)[C@@]1(OC(C)=O)C(=O)C(=O)OC1C1COC(C)(C)O1 (stereo partly specified) | > 200 µM | 6.46 µM | 
9 | O=C1N[C@@H]2c3c(Br)sc(Br)c3C(=O)[C@@H]2O1 | > 200 µM | 0.759 µM | 
10 | O=S(=O)(O)c1cccc(N=Nc2ccc(N=Nc3ccc(Nc4ccccc4)c4c(S(=O)(=O)O)cccc34)c3ccccc23)c1 | 155 µM | > 200 µM | 
11 | CC1=NN2C(=O)C(c3ccccc3)SC2=NC(C)(C)C1 (stereo unspecified) | > 457 µM | > 457 µM | 
12 | O=C1C(=O)N(c2cccc(C(F)(F)F)c2)C(=S)N1c1ccccc1 | > 200 µM | 30.9 µM | 
13 | C=CCN1CCC(C(=O)CC)(c2ccccc2)CC1 | > 355 µM | 166 µM | 
14 | CCN1OC(C)(C)C2CCC(C)CC21 (stereo unspecified) | > 1260 µM | > 1260 µM | 
15 | CN(C)c1ccc(/C=C2\C=Cc3ccccc32)cc1F | > 200 µM | 120 µM | 
16 | COC1(OC)CC2C(=O)N(Cc3ccccc3)C1C(S(=O)(=O)c1ccccc1)C2C(C)S(=O)(=O)c1ccccc1 (stereo unspecified) | > 23.4 µM | > 23.4 µM | 
17 | COc1ccc(NS(=O)c2ccccc2OC)cc1 (stereo unspecified) | > 200 µM | 15.1 µM | 
18 | CC1CC(=O)c2c(cc3c(-c4c(O)cc(O)c5c(O)c6c(cc45)OC(C)CC6=O)c(O)cc(O)c3c2O)O1 (stereo unspecified) |  |  | inactive

Row | SMILES | EC50 | IC50 | outcome
19 | CC12CCC(C(=O)OC1=O)C2(C)C (stereo unspecified) | > 200 µM | > 200 µM | 
20 | Nc1ccc(S(=O)(=O)S(=O)(=O)c2ccc(N)cc2)cc1 | > 200 µM | 112 µM | 
21 | C=C1C2=C(CCCC2)C(=O)OC12CCCCC2 | > 100 µM | > 100 µM | 
22 | Cc1cn(C2CC(O)C(COC(=O)CCCCCCCCCCN=[N+]=[N-])O2)c(=O)[nH]c1=O (stereo unspecified) | > 123 µM | 24 µM | 
23 | CCOC(=O)C(=Cc1ccccc1OC)C(=O)OCC | > 129 µM | 21.9 µM | 
24 | O=C(CC(=O)N1N=C(N(c2ccccc2)c2ccccc2)CC1c1ccccc1)Nc1ccccc1 (stereo unspecified) |  |  | inactive
25 | CC1(C)CC(=O)C(/C=N/C(=S)NCCc2ccccc2)=C(O)C1 | > 200 µM | > 200 µM | 
26 | CN1CCN(C)C12C=c1ccccc1=CC21CC1 |  |  | inactive
27 | Cc1ccc(/C=c2\cc3oc(=O)c4cccc(c4-3)c2=O)cc1 | > 200 µM | 3.8 µM | 
28 | NNC(=S)SSC(=S)NN | > 200 µM | 21.9 µM | 
29 | O=C1C(Cl)C(c2ccc(Cl)cc2)N1n1cnc2ccccc2c1=O (stereo unspecified) | > 18.6 µM | > 18.6 µM | 
30 | O=C(c1ccccc1)C1C(=O)c2ccccc2C1=O | > 105 µM | > 105 µM | 
31 | CCOC(=O)/C(N=Nc1ccc(-n2c(C)nc3ccccc3c2=O)cc1)=C(/C)O | > 200 µM | 151 µM | 
32 | O=C(O)CCC(NC(=O)c1ccc(Nc2nc3ccccc3nc2C(=O)O)cc1)C(=O)O (stereo unspecified) | > 200 µM | > 200 µM | 
33 | CC(C)CC(NC(=O)c1ccccc1SC(=O)CCCC[n+]1ccccc1)C(N)=O (stereo unspecified) | 1.74 µM | 4.07 µM | 
34 | NS(=O)(=O)c1ccc(CNC(=O)c2ccccc2SC(=O)OCCCCCl)cc1 | 4.68 µM | 129 µM | 
35 | COC(=O)c1cc(C(=CCC[C@H]2CC[C@@]3(C)C(CC[C@@H]4C3CC[C@@]3(C)C4CC[C@@H]3[C@H](C)CCCC(C)C)C2)c2cc(Cl)c(OC)c(C(=O)OC)c2)cc(Cl)c1OC (stereo partly specified) | > 15.8 µM | > 15.8 µM | 
